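Cultured in 96-well plates, cells were exposed to test compound for 48 hours across five concentrations. Definition used: TGI = concentration required for complete inhibition of growth.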
Legend:
Assay in all cases: NCI tumour cell line growth inhibition, 48 h
MDA-N = tested on: MDA-N
DMS 114 small cell lung = tested on: DMS 114 small cell lung
HOP-18 NSCLC = tested on: HOP-18 NSCLC
KM20L2 colon = tested on: KM20L2 colon
LXFL 529 NSCLC = tested on: LXFL 529 NSCLC
RXF-631 renal = tested on: RXF-631 renal
XF 498 CNS = tested on: XF 498 CNS
P388 leukemia = tested on: P388 leukemia
P388/ADR leukemia = tested on: P388/ADR leukemia
SN12K1 renal = tested on: SN12K1 renal

| Structure (SMILES) | TGI (MDA-N) | TGI (DMS 114 small cell lung) | TGI (HOP-18 NSCLC) | TGI (KM20L2 colon) | TGI (LXFL 529 NSCLC) | TGI (RXF-631 renal) | TGI (XF 498 CNS) | further results |
| --- | --- | --- | --- | --- | --- | --- | --- | --- |
| COc1cc(COC(=O)N(CC(=O)O)c2ccccc2)c([N+](=O)[O-])cc1OC | > 100 µM | – | – | – | – | – | – | – |
| CC(=O)OC(CCC1(C)OC1COc1ccc(CCNC(=O)c2ccccc2)cc1)C(C)(C)OC(C)=O (stereo not given) | – | 15.8 µM | > 100 µM | > 100 µM | 34.6 µM | – | – | – |
| COc1ccc2c(c1)n([O-])c1ccccc1[n+]2=O | > 100 µM | – | – | – | – | – | – | – |
| N#C/C(=C\NC(=S)c1ccncc1)c1nc2ccccc2s1 | > 100 µM | – | – | – | – | – | – | – |
| C=C1CC/C=C(\C)C(=O)C[C@@H]2[C@@H]1CC2(C)C | 3.16 µM | – | – | – | – | – | – | – |
| C=C(Br)N(CC)CC | – | > 100 µM | > 100 µM | > 100 µM | > 100 µM | > 100 µM | – | – |
| O=C1c2ccccc2C(=O)c2c1ccc(C1C(=O)c3ccccc3C1=O)c2-c1c(C2C(=O)c3ccccc3C2=O)ccc2c1C(=O)c1ccccc1C2=O | > 100 µM | – | – | – | – | – | – | – |
| O=C(Nc1nc2ncn(CCNCc3ccccc3)c2c(=O)[nH]1)c1ccccc1 | – | > 100 µM | > 100 µM | > 100 µM | > 100 µM | > 100 µM | – | – |
| CSc1ccc(NC(=S)NN(C)C)cc1 | > 10 µM | – | – | – | – | – | – | – |
| CC(=O)OCC1OC(SC2OC(COC(C)=O)C(OC(C)=O)C(OC(C)=O)C2OC(C)=O)C(OC(C)=O)C(OC(C)=O)C1OC(C)=O (stereo not given) | > 100 µM | – | – | – | – | – | – | – |
| O=C(CC1(O)C(=O)Nc2c(Cl)cc(Cl)cc21)c1cccc2ccccc12 (stereo not given) | – | 35.6 µM | 32.2 µM | 34.1 µM | 28.6 µM | 43.3 µM | 34.8 µM | – |
| COC1OC(COCc2ccc(Cl)cc2)C(OCc2ccc(Cl)cc2)C1N=[N+]=[N-] (stereo not given) | – | > 100 µM | > 100 µM | > 100 µM | > 100 µM | – | > 100 µM | – |
| CCn1cc(C(=O)O)c(=O)c2cc3c(cc21)S(=O)(=O)CC3 | > 100 µM | – | – | – | – | – | – | – |
| CC1OC(OC2C(O[C@H]3CC[C@@]4(C)C(=CC[C@H]5[C@@H]6C[C@@H]7O[C@]8(CC[C@H](C)CN8)[C@@H](C)[C@@H]7[C@@]6(C)CC[C@@H]54)C3)OC(CO)C(O)C2OC2OC(CO)C(O)C(O)C2O)C(O)C(O)C1O (stereo not given in full) | 36.1 µM | – | – | – | – | – | – | – |
| O=[N+]([O-])c1cccc(-c2oc(C=Nc3ccccc3)c([N+](=O)[O-])c2-c2cccc([N+](=O)[O-])c2)c1 | – | > 100 µM | – | > 100 µM | > 100 µM | > 100 µM | – | – |
| O=C(O)c1cnc2[nH]ccn2c1=O | > 100 µM | – | – | – | – | – | – | – |
| O=C1C2C3C=CC(C2C(=O)N1COP(=O)(O)O)C1C2C(=O)N(COP(=O)(O)O)C(=O)C2C31 (stereo not given) | – | > 58.8 µM | > 100 µM | > 100 µM | > 100 µM | – | > 100 µM | – |
| O=[N+]([O-])c1cccc(C2ON2C2CCCCC2)c1 (stereo not given) | – | 42.9 µM | > 100 µM | 49.3 µM | 45.6 µM | – | – | – |
| COC(=O)CCC(=O)CC(=O)C(=O)Nc1c(Cl)cc([N+](=O)[O-])cc1Cl | – | 77.9 µM | > 100 µM | > 100 µM | > 100 µM | > 100 µM | > 100 µM | – |
| CCOC(=O)C1=C(C)N(c2ccc(C)cc2)C2=C(C(=O)N(c3ccccc3)C2c2ccccc2)C1c1ccccc1 (stereo not given) | – | > 25 µM | – | > 25 µM | > 25 µM | > 25 µM | > 25 µM | – |
| COCCCNC(=O)CC(=O)NCCCOC | – | > 100 µM | > 100 µM | > 100 µM | > 100 µM | > 100 µM | – | – |
| CCCCS(=O)(=O)CCC(N)C(=O)O (stereo not given) | > 100 µM | – | – | – | – | – | – | – |

| Structure (SMILES) | TGI (MDA-N) | TGI (DMS 114 small cell lung) | TGI (HOP-18 NSCLC) | TGI (KM20L2 colon) | TGI (LXFL 529 NSCLC) | TGI (RXF-631 renal) | TGI (XF 498 CNS) | further results |
| --- | --- | --- | --- | --- | --- | --- | --- | --- |
| O=c1[nH]c(=O)n(C2CC(O)C(CO)O2)cc1C1=NC1 (stereo not given) | > 100 µM | – | – | – | – | – | – | – |
| CN(C)CCNC(=O)c1cccc2c1nc(-c1ccccc1)c1ccccc12 | – | – | 27.9 µM | – | – | 3.06 µM | – | – |
| C[C@]1(CO)CCC[C@@]2(C)C1CC[C@H]1CC3C[C@]12CC[C@]3(C)O (stereo not given in full) | – | > 100 µM | – | > 100 µM | – | > 100 µM | > 100 µM | – |
| O=CC[C@H]1CCc2ccccc2C12CCC(=O)CC2 | – | > 100 µM | – | > 100 µM | > 100 µM | > 100 µM | > 100 µM | – |
| CC(=O)c1ccc(NC(=O)C(=O)Nn2c(=S)[nH]c3ccccc3c2=O)cc1 | – | > 100 µM | > 100 µM | > 100 µM | > 100 µM | – | > 100 µM | – |
| CCCCCCCCCCCC1CCCC(C)N1 (stereo not given) | – | 139 µM | 169 µM | 85.9 µM | – | – | 95.3 µM | TGI (P388 leukemia): 23.9 µM; TGI (P388/ADR leukemia): 54.7 µM; TGI (SN12K1 renal): 86.4 µM |
| C1CCN(c2nc(=[N+]3CCCCC3)ss2)CC1 | – | > 100 µM | > 100 µM | > 100 µM | > 100 µM | > 100 µM | > 100 µM | – |
| O=C(O)/C(=C/C=C/c1ccccc1)c1csc(-c2nc(/C(=C\C=C\c3ccccc3)C(=O)O)cs2)n1 | – | 72 µM | – | > 100 µM | 64.8 µM | – | – | – |
| N#C/C(=C\c1cc(Cl)cc(Cl)c1)c1ccccn1 | 40.2 µM | – | – | – | – | – | – | – |
| O=C(CCC(=O)C(C(=O)c1ccccc1)c1ccccc1)Nc1cccc(C(F)(F)F)c1 (stereo not given) | – | > 100 µM | > 100 µM | > 100 µM | > 100 µM | – | > 100 µM | – |
| COc1cc2c3c(c1OC)-c1c(ccc4c1OCO4)CC3(C#N)N(C(=O)c1ccccc1)CC2 (stereo not given) | – | > 100 µM | – | > 100 µM | > 100 µM | > 100 µM | 60.2 µM | – |
| COc1ccc(/C=c2\sc3n(c2=O)C(N)=C(C#N)C(c2ccc(OC)cc2)C=3c2nc3ccccc3[nH]2)cc1 (stereo not given) | – | 72.9 µM | – | > 100 µM | – | – | – | – |
| Cc1ccc(S(=O)(=O)OCC23CCC(CC2)C2CC23)cc1 (stereo not given) | – | > 100 µM | > 100 µM | > 100 µM | > 100 µM | > 100 µM | – | – |
| COc1ccc(/C=C2\CCC(CNc3ccc(OC)cc3)C2=O)cc1 (stereo not given) | 30.8 µM | – | – | – | – | – | – | – |
| CCC(=O)c1c(NOC2OC(COC(C)=O)C(OC(C)=O)C(OC(C)=O)C2OC(C)=O)nc(OC)n(C)c1=O (stereo not given) | – | > 100 µM | – | > 100 µM | > 100 µM | > 100 µM | > 100 µM | – |
| CCc1cccc(C(C)C)c1N1C(=O)C(=O)C(c2nc3ccccc3s2)C(=O)C1=O | – | > 50 µM | > 50 µM | > 50 µM | > 50 µM | – | > 50 µM | – |
| Clc1ccc(C2SCc3nc4ccccc4n32)cc1Cl (stereo not given) | – | 36 µM | – | – | 24 µM | – | 24.4 µM | – |
| CC1(C)Cc2cc(C(=O)O)c3c(c2C1=O)COCC3 | – | > 100 µM | > 100 µM | > 100 µM | > 100 µM | – | > 100 µM | – |
| C1=CC=C2NCCCNC3=CC=CC=CC3=NCCCN=C2C=C1 | – | > 100 µM | – | > 100 µM | > 100 µM | > 100 µM | > 100 µM | – |
| CCc1cccc(C(C)C)c1NC(=O)C(=O)C(CC(=O)Nc1ccc(Cl)c(Cl)c1)C(=O)OC (stereo not given) | – | > 100 µM | > 100 µM | > 100 µM | – | > 100 µM | > 100 µM | – |
| S=c1cc(S)sc2c1c(=S)sc1nc3ccccn3c(=S)c12 | – | 40.1 µM | > 100 µM | > 100 µM | – | – | > 100 µM | – |
| COc1ccc(/C(C#N)=C/c2ccc(OC)c(OC)c2)cc1 | > 100 µM | – | – | – | – | – | – | – |
